SMILES strings stand for the structures.

Experimental findings from publication PMC11711195, “The non-nutritive sweetener rebaudioside a enhances phage infectivity” (Scientific Reports, 2025) are described below.

The assay has as its target T1, gp31 (Klebsiella phage KP32, UniProt D1L2W4).
T1 construct: gene 31; recombinant from bacterial expression, His-tag (and MBP) removed by TEV protease
T1 sequence (D1L2W4 1-192): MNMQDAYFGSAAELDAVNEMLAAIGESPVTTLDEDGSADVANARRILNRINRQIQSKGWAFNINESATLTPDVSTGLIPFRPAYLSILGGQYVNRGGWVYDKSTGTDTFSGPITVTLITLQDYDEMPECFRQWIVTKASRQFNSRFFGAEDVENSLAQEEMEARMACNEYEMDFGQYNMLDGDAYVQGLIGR
Kind of assay: RedStarch hydrolysis, absorbance […] nm. The assay is classed as biochemical. Conditions: activator; RedStarch 2% w/v stock; 50 µL gp31 4.673 µM plus 50 µL rebA 14.019 µM; 20 °C, 72 h.

For the compound `C=C1C[C@@]23CC[C@H]4[C@@](C)(CCC[C@@]4(C)C(=O)O[C@@H]4O[C@H](CO)[C@@H](O)[C@H](O)[C@H]4O)[C@@H]2CC[C@]1(O[C@@H]1O[C@H](CO)[C@@H](O)[C@H](O[C@@H]2O[C@H](CO)[C@@H](O)[C@H](O)[C@H]2O)[C@H]1O[C@@H]1O[C@H](CO)[C@@H](O)[C@H](O)[C@H]1O)C3` [rebA], the increment of activity is 51.14%.
